# Data as given in ChEMBL document CHEMBL4665836, “Overcoming β-Lactam resistance in Pseudomonas aeruginosa using non-canonical tobramycin-based antibiotic adjuvants” (2020).
# Tests used:
# Assay type in all cases: functional
# Pseudomonas aeruginosa [1] = assay: Potentiation of ceftazidime-induced antibacterial activity against carbapenem-resistant Pseudomonas aeruginosa 101885 clinical isolate assessed as ceftazidime MIC at 8 uM by checkerboard assay (reference value: 8 ug/ml)
# Pseudomonas aeruginosa [2] = assay: Potentiation of aztreonam-induced antibacterial activity against carbapenem-resistant Pseudomonas aeruginosa 264-104354 clinical isolate assessed as aztreonam MIC at 8 uM by checkerboard assay (reference value: 32 ug/ml)
# Pseudomonas aeruginosa [3] = assay: Potentiation of ceftazidime-induced antibacterial activity against carbapenem-resistant Pseudomonas aeruginosa 109084 clinical isolate assessed as ceftazidime MIC at 8 uM by checkerboard assay (reference value: 64 ug/ml)
# Pseudomonas aeruginosa [4] = assay: Potentiation of ceftazidime-induced antibacterial activity against carbapenem-resistant Pseudomonas aeruginosa 109084 clinical isolate assessed as fold reduction in ceftazidime MIC at 8 uM in presence of beta-lactamase inhibitor, avi-bactam
# Pseudomonas aeruginosa [5] = assay: Potentiation of imipenem-induced antibacterial activity against carbapenem-resistant Pseudomonas aeruginosa 86052 clinical isolate assessed as fold reduction in imipenem MIC at 8 uM in presence of beta-lactamase inhibitor, rele-bactam
# Pseudomonas aeruginosa [6] = assay: Potentiation of ceftazidime-induced antibacterial activity against carbapenem-resistant Pseudomonas aeruginosa 100036 clinical isolate assessed as ceftazidime MIC at 8 uM by checkerboard assay (reference value: 8 ug/ml)
# Pseudomonas aeruginosa [7] = assay: Potentiation of ceftazidime-induced antibacterial activity against carbapenem and colistin-resistant Pseudomonas aeruginosa 91433 clinical isolate assessed as ceftazidime MIC at 8 uM by checkerboard assay (reference value: 4 ug/ml)
# Pseudomonas aeruginosa [8] = assay: Potentiation of aztreonam-induced antibacterial activity against carbapenem-resistant Pseudomonas aeruginosa 86052 clinical isolate assessed as fold reduction in aztreonam MIC at 8 uM in presence of beta-lactamase inhibitor, avi-bactam
# Pseudomonas aeruginosa [9] = assay: Potentiation of imipenem-induced antibacterial activity against carbapenem-resistant Pseudomonas aeruginosa 107092 clinical isolate assessed as fold reduction in imipenem MIC at 8 uM in presence of beta-lactamase inhibitor, rele-bactam
# Pseudomonas aeruginosa [10] = assay: Potentiation of imipenem-induced antibacterial activity against carbapenem-resistant Pseudomonas aeruginosa 88949 clinical isolate assessed as fold reduction in imipenem MIC at 8 uM in presence of beta-lactamase inhibitor, rele-bactam
# Pseudomonas aeruginosa [11] = assay: Potentiation of imipenem-induced antibacterial activity against carbapenem-resistant Pseudomonas aeruginosa 108590 clinical isolate assessed as fold reduction in imipenem MIC at 8 uM in presence of beta-lactamase inhibitor, rele-bactam
# Pseudomonas aeruginosa [12] = assay: Potentiation of ceftazidime-induced antibacterial activity against carbapenem-resistant Pseudomonas aeruginosa 86052 clinical isolate assessed as fold reduction in ceftazidime MIC at 8 uM in presence of beta-lactamase inhibitor, avi-bactam
# Pseudomonas aeruginosa [13] = assay: Potentiation of aztreonam-induced antibacterial activity against carbapenem-resistant Pseudomonas aeruginosa 88949 clinical isolate assessed as fold reduction in aztreonam MIC at 8 uM in presence of beta-lactamase inhibitor, avi-bactam
# Pseudomonas aeruginosa [14] = assay: Potentiation of ceftazidime-induced antibacterial activity against carbapenem-resistant Pseudomonas aeruginosa 107092 clinical isolate assessed as fold reduction in ceftazidime MIC at 8 uM in presence of beta-lactamase inhibitor, avi-bactam
# Pseudomonas aeruginosa [15] = assay: Potentiation of ceftazidime-induced antibacterial activity against carbapenem-resistant Pseudomonas aeruginosa 260-97103 clinical isolate assessed as ceftazidime MIC at 8 uM by checkerboard assay (reference value: 32 ug/ml)
# Pseudomonas aeruginosa [16] = assay: Potentiation of aztreonam-induced antibacterial activity against carbapenem and colistin-resistant Pseudomonas aeruginosa 91433 clinical isolate assessed as aztreonam MIC at 8 uM by checkerboard assay (reference value: 16 ug/ml)
# Pseudomonas aeruginosa [17] = assay: Potentiation of aztreonam-induced antibacterial activity against carbapenem-resistant Pseudomonas aeruginosa 107092 clinical isolate assessed as fold reduction in aztreonam MIC at 8 uM in presence of beta-lactamase inhibitor, avi-bactam
# Pseudomonas aeruginosa [18] = assay: Potentiation of aztreonam-induced antibacterial activity against carbapenem-resistant Pseudomonas aeruginosa 101885 clinical isolate assessed as aztreonam MIC at 8 uM by checkerboard assay (reference value: 16 ug/ml)
# Pseudomonas aeruginosa [19] = assay: Antibacterial activity against Pseudomonas aeruginosa PAO200 harboring mexAB-oprM efflux deficient mutant
# Pseudomonas aeruginosa [20] = assay: Potentiation of aztreonam-induced antibacterial activity against carbapenem-resistant Pseudomonas aeruginosa 88949 clinical isolate assessed as aztreonam MIC at 8 uM by checkerboard assay (reference value: 32 ug/ml)
# Pseudomonas aeruginosa [21] = assay: Potentiation of aztreonam-induced antibacterial activity against carbapenem-resistant Pseudomonas aeruginosa 108590 clinical isolate assessed as aztreonam MIC at 8 uM by checkerboard assay (reference value: 32 ug/ml)
# Pseudomonas aeruginosa [22] = assay: Potentiation of piperacillin-induced antibacterial activity against wild type Pseudomonas aeruginosa PAO1 assessed as piperacillin MIC at 8 uM by checkerboard assay (reference value: 8 ug/ml)
# Pseudomonas aeruginosa [23] = assay: Potentiation of piperacillin-induced antibacterial activity against wild type Pseudomonas aeruginosa PAO1 assessed as fold reduction in piperacillin MIC at 8 uM
# Pseudomonas aeruginosa [24] = assay: Potentiation of aztreonam-induced antibacterial activity against carbapenem-resistant Pseudomonas aeruginosa 109084 clinical isolate assessed as fold reduction in aztreonam MIC at 8 uM in presence of beta-lactamase inhibitor, avi-bactam
# Pseudomonas aeruginosa [25] = assay: Potentiation of aztreonam-induced antibacterial activity against carbapenem-resistant Pseudomonas aeruginosa 109084 clinical isolate assessed as aztreonam MIC at 8 uM by checkerboard assay (reference value: 64 ug/ml)
# Pseudomonas aeruginosa [26] = assay: Potentiation of aztreonam-induced antibacterial activity against carbapenem-resistant Pseudomonas aeruginosa PAO750 harboring mexAB-oprM/mexCD-oprJ/mexEF-oprN/mexJK/mexXY/opmH efflux deficient mutant assessed as aztreonam MIC at 8 uM by checkerboard assay (reference value: 0.5 ug/ml)
# Pseudomonas aeruginosa [27] = assay: Antibacterial activity against Pseudomonas aeruginosa PAO750 harboring mexAB-oprM/mexCD-oprJ/mexEF-oprN/mexJK/mexXY/opmH efflux deficient mutant
# Pseudomonas aeruginosa [28] = assay: Potentiation of ceftazidime-induced antibacterial activity against carbapenem-resistant Pseudomonas aeruginosa 264-104354 clinical isolate assessed as ceftazidime MIC at 8 uM by checkerboard assay (reference value: 128 ug/ml)
# Pseudomonas aeruginosa [29] = assay: Potentiation of imipenem-induced antibacterial activity against carbapenem-resistant Pseudomonas aeruginosa 259-96918 clinical isolate expressing MBL assessed as imipenem MIC at 8 uM by checkerboard assay (reference value: 64 ug/ml)
# Pseudomonas aeruginosa [30] = assay: Potentiation of imipenem-induced antibacterial activity against carbapenem and colistin-resistant Pseudomonas aeruginosa 114228 clinical isolate assessed as imipenem MIC at 8 uM by checkerboard assay (reference value: 8 ug/ml)
# Pseudomonas aeruginosa [31] = assay: Potentiation of imipenem-induced antibacterial activity against carbapenem-resistant Pseudomonas aeruginosa 109084 clinical isolate assessed as imipenem MIC at 8 uM by checkerboard assay (reference value: 16 ug/ml)
# Pseudomonas aeruginosa [32] = assay: Potentiation of imipenem-induced antibacterial activity against carbapenem-resistant Pseudomonas aeruginosa 108590 clinical isolate assessed as imipenem MIC at 8 uM by checkerboard assay (reference value: 16 ug/ml)
# Pseudomonas aeruginosa [33] = assay: Potentiation of imipenem-induced antibacterial activity against carbapenem and colistin-resistant Pseudomonas aeruginosa 91433 clinical isolate assessed as imipenem MIC at 8 uM by checkerboard assay (reference value: 8 ug/ml)
Structure (SMILES),MIC (Pseudomonas aeruginosa [1]),MIC (Pseudomonas aeruginosa [2]),MIC (Pseudomonas aeruginosa [3]),fold change (FC) (Pseudomonas aeruginosa [4]),fold change (FC) (Pseudomonas aeruginosa [5]),MIC (Pseudomonas aeruginosa [6]),MIC (Pseudomonas aeruginosa [7]),fold change (FC) (Pseudomonas aeruginosa [8]),fold change (FC) (Pseudomonas aeruginosa [9]),fold change (FC) (Pseudomonas aeruginosa [10]),fold change (FC) (Pseudomonas aeruginosa [11]),fold change (FC) (Pseudomonas aeruginosa [12]),fold change (FC) (Pseudomonas aeruginosa [13]),fold change (FC) (Pseudomonas aeruginosa [14]),MIC (Pseudomonas aeruginosa [15]),MIC (Pseudomonas aeruginosa [16]),fold change (FC) (Pseudomonas aeruginosa [17]),MIC (Pseudomonas aeruginosa [18]),MIC (Pseudomonas aeruginosa [19]),MIC (Pseudomonas aeruginosa [20]),also measured
N=C(N)NC[C@H]1O[C@H](O[C@H]2[C@H](OCCCCCCCCCCCCN3CCN(c4cc5c(cc4F)c(=O)c(C(=O)O)cn5C4CC4)CC3)[C@@H](O[C@H]3O[C@H](CO)[C@@H](O)[C@H](NC(=N)N)[C@H]3O)[C@H](NC(=N)N)C[C@@H]2NC(=N)N)[C@H](NC(=N)N)C[C@@H]1O.O=C(O)C(F)(F)F.O=C(O)C(F)(F)F.O=C(O)C(F)(F)F.O=C(O)C(F)(F)F.O=C(O)C(F)(F)F.O=C(O)C(F)(F)F,2 µg/mL,32 µg/mL,32 µg/mL,16,16,6 µg/mL,4 µg/mL,16,16,16,16,16,16,16,16 µg/mL,16 µg/mL,16,4 µg/mL,16 µg/mL,32 µg/mL,MIC (Pseudomonas aeruginosa [21]): 2 µg/mL; MIC (Pseudomonas aeruginosa [22]): 8 µg/mL; fold change (FC) (Pseudomonas aeruginosa [23]): 2; fold change (FC) (Pseudomonas aeruginosa [24]): 16; MIC (Pseudomonas aeruginosa [25]): 32 µg/mL; MIC (Pseudomonas aeruginosa [26]): 0.06 µg/mL; MIC (Pseudomonas aeruginosa [27]): 16 µg/mL; MIC (Pseudomonas aeruginosa [28]): 128 µg/mL; MIC (Pseudomonas aeruginosa [29]): 64 µg/mL; MIC (Pseudomonas aeruginosa [30]): 1 µg/mL; MIC (Pseudomonas aeruginosa [31]): 16 µg/mL; MIC (Pseudomonas aeruginosa [32]): 4 µg/mL; MIC (Pseudomonas aeruginosa [33]): 8 µg/mL
NC[C@H]1O[C@H](O[C@H]2[C@H](OCCCCc3cn(CCCCO[C@@H]4[C@@H](O)[C@H](N)C[C@H](N)[C@H]4O[C@H]4O[C@H](CN)[C@@H](O)C[C@H]4N)nn3)[C@@H](O)[C@H](N)C[C@@H]2N)[C@H](N)C[C@@H]1O.O=C(O)C(F)(F)F.O=C(O)C(F)(F)F.O=C(O)C(F)(F)F.O=C(O)C(F)(F)F.O=C(O)C(F)(F)F.O=C(O)C(F)(F)F.O=C(O)C(F)(F)F.O=C(O)C(F)(F)F,1 µg/mL,8 µg/mL,32 µg/mL,16,16,4 µg/mL,0.5 µg/mL,16,16,16,16,16,16,16,16 µg/mL,2 µg/mL,16,4 µg/mL,> 128 µg/mL,16 µg/mL,MIC (Pseudomonas aeruginosa [21]): 16 µg/mL; MIC (Pseudomonas aeruginosa [22]): 8 µg/mL; fold change (FC) (Pseudomonas aeruginosa [23]): 2; fold change (FC) (Pseudomonas aeruginosa [24]): 16; MIC (Pseudomonas aeruginosa [25]): 16 µg/mL; MIC (Pseudomonas aeruginosa [26]): 0.25 µg/mL; MIC (Pseudomonas aeruginosa [27]): 128 µg/mL; MIC (Pseudomonas aeruginosa [28]): 32 µg/mL; MIC (Pseudomonas aeruginosa [29]): 64 µg/mL; MIC (Pseudomonas aeruginosa [30]): 4 µg/mL; MIC (Pseudomonas aeruginosa [31]): 16 µg/mL; MIC (Pseudomonas aeruginosa [32]): 8 µg/mL; MIC (Pseudomonas aeruginosa [33]): 8 µg/mL
